GI50 and Kd data for eight molecules are collected here from patent US20250032623A1, “HETEROBIFUNCTIONAL COMPOUNDS AND THEIR USE IN TREATING DISEASE” (HALDA THERAPEUTICS OPCO, INC., priority 2021, published 2025).

Molecules are shown by their SMILES. Bounds are passed on as bounds.

One experiment concerns HEK293 cells. Briefly: Cellular growth inhibition assay (CellTiter-Glo), HEK293 cells. It counts as cell-based. Conditions: Homo sapiens, 72 h, three days compound treatment, CellTiter-Glo 2.0, read-out: CTG HEK293 GI50. Here is the method: (§1) Exemplary compounds were tested for ability to inhibit the proliferation of HEK293 cells or HeLa cells.
(§2) HEK293 and HeLa cells were cultured in DMEM medium supplemented with 10% fetal bovine serum and 1% Penn/Strep. Cells were seeded in white 384-well plates at 500 cells/well in […] complete medium. Following seeding, plates were spun at 300×g for three minutes and cultured at 37° C. with 5% CO2 in a humidified tissue culture incubator.
(§3) After 24 hours, compounds were titrated in 100% DMSO and diluted in complete cell culture medium. […] of compound/media mixture was added to cells to bring total volume in well to […]. DMSO alone was used as a negative control. P lates were then spun at 300×g for three minutes and stored at 37° C. with 5% CO2 for three days.
(§4) On Day 0 and Day 3 of compound treatment, cell viability was quantified with CellTiter-Glo 2.0 reagent (Promega). After equilibrating microplates at room temperature for 30 minutes, 25 μL CellTiter-Glo 2.0 reagent was dispensed into each well to bring total volume to […]. Plates were mixed on shaker for 2 minutes at 500 rpm, followed by a 10-minute incubation at room temperature. Following a quick spin, luminescence readings were measured with an EnVision Plate Reader. Data was normalized to DMSO treated Day 0 and Day 3 readings. A four-parameter non-linear regression curve fit was applied to dose-response data in GraphPad Prism data analysis software to determine the half maximal growth inhibitory concentration (GI50) for each compound.
In general terms: Cellular ATP, detected with luciferase, serves as a proxy for viable cell number.

Another experiment relates to HeLa cells. Briefly: Cellular growth inhibition assay (CellTiter-Glo), HeLa cells. It is filed as cell-based. Conditions: Homo sapiens, 72 h, three days compound treatment, CellTiter-Glo 2.0, read-out: CTG HELA GI50. As to the method:
as §1, §2, §3, §4

Another experiment has as its target T1, EGFR (Homo sapiens, UniProt P00533).
T1 construct: purchased
Kind of experiment: KdELECT binding assay, EGFR. As to the method:
Exemplary compounds were tested for ability to bind to EGFR.
(§5) Compounds were tested using a KdELECT assay. Kinase-tagged T7 phage strains were prepared in an E. coli host derived from the BL21 strain. E. coli were grown to log-phase and infected with T7 phage and incubated with shaking at 32° C. until lysis. The lysates were centrifuged and filtered to remove cell debris. The remaining kinases were produced in HEK-293 cells and subsequently tagged with DNA for qPCR detection. Streptavidin-coated magnetic beads were treated with biotinylated small molecule ligands for 30 minutes at room temperature to generate affinity resins for kinase assays. The liganded beads were blocked with excess biotin and washed with blocking buffer (SeaBlock (Pierce), 1% BSA, 0.05% Tween 20, 1 mM DTT) to remove unbound ligand and to reduce non-specific binding. Binding reactions were assembled by combining kinases, liganded affinity beads, and test compounds in 1× binding buffer (20% SeaBlock, 0.17×PBS, 0.05% Tween 20, 6 mM DTT). Test compounds were prepared as 111× stocks in 100% DMSO. Kd values were determined using an 11-point 3-fold compound dilution series with three DMSO control points. All compounds for Kd measurements are distributed by acoustic transfer (non-contact dispensing) in 100% DMSO. The compounds were then diluted directly into the assays such that the final concentration of DMSO was 0.9%. All reactions performed in polypropylene 384-well plate. Each was a final volume of 0.02 mL. The assay plates were incubated at room temperature with shaking for 1 hour and the affinity beads were washed with wash buffer (1× PBS, 0.05% Tween 20). The beads were then re-suspended in elution buffer (1× PBS, 0.05% Tween 20, 0.5 μM nonbiotinylated affinity ligand) and incubated at room temperature with shaking for 30 minutes. The kinase concentration in the eluates was measured by qPCR.

In experiment [1] the target is T2, EGFR T790M, L858R (amino acids 669-1011 Accession Number NP_005219.2) (Homo sapiens, UniProt P00533, L858R/T790M).
T2 construct: purchased Eurofins Discovery; host or cells: mammalian cells (HEK-293)
Kind of experiment: KdELECT binding assay (Eurofins Discovery), EGFR T790M, L858R. The settings on record: read-out: EGFR DM Kd. As to the method:
(§6) Exemplary compounds were tested for ability to bind to EGFR WT (amino acids 669-1011, Accession Number NP_005219.2) or EGFR T790M, L858R (amino acids 669-1011 Accession Number NP_005219.2) expressed from bacteria or mammalian cells, respectively. Compounds were tested using the KdELECT assay at Eurofins Discovery.
as §5, with “Kinase-tagged” for “Compounds were tested using a KdELECT assay. Kinase-tagged”

The target of experiment [2] is T3, EGFR WT (amino acids 669-1011, Accession Number NP_005219.2) (Homo sapiens, UniProt P00533).
T3 construct: purchased Eurofins Discovery; host or cells: bacteria (E. coli, BL21-derived, T7 phage)
Kind of experiment: KdELECT binding assay (Eurofins Discovery), EGFR WT. As to the method:
as §6
as §5, with “Kinase-tagged” for “Compounds were tested using a KdELECT assay. Kinase-tagged”

T3 sequence (P00533 669-1011): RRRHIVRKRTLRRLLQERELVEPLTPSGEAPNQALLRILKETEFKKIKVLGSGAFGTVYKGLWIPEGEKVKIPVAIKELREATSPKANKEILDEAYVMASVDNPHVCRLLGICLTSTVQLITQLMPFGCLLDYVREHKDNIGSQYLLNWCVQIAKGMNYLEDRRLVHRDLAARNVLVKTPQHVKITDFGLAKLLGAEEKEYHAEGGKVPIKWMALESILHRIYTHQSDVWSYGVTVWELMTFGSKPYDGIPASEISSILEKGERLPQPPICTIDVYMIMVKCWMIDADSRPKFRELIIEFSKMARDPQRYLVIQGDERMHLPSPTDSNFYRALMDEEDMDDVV
T1 sequence (P00533 25-1210): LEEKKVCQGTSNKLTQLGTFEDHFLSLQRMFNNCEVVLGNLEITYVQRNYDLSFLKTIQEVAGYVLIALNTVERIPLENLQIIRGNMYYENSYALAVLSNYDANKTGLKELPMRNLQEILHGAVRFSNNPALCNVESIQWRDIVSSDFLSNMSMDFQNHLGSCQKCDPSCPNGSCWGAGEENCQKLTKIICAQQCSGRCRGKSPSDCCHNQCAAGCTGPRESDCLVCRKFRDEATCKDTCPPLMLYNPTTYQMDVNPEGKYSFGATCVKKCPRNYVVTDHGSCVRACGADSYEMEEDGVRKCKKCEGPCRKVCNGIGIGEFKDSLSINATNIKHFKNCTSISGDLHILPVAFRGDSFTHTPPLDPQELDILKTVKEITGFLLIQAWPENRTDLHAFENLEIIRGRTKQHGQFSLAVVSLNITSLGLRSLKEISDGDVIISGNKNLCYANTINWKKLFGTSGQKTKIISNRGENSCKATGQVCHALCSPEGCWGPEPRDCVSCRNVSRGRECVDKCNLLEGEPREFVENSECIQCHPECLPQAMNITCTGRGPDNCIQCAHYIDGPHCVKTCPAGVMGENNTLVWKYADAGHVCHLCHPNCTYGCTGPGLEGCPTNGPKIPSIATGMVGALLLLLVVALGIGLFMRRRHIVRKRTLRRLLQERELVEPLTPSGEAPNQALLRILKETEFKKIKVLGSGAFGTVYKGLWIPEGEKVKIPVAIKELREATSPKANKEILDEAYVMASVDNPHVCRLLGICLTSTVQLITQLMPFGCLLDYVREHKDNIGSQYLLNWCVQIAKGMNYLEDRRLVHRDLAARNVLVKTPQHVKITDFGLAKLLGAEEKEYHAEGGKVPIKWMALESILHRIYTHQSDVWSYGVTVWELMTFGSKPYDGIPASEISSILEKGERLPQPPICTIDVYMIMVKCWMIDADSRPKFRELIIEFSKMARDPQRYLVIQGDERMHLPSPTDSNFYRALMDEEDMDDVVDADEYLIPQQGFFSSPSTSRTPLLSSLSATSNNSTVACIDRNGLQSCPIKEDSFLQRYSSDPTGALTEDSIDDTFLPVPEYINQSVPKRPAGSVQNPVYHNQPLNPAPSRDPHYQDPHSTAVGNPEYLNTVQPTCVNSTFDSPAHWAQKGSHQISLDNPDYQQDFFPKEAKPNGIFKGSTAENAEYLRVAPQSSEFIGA
T2 sequence (P00533 669-1011 T790M/L858R): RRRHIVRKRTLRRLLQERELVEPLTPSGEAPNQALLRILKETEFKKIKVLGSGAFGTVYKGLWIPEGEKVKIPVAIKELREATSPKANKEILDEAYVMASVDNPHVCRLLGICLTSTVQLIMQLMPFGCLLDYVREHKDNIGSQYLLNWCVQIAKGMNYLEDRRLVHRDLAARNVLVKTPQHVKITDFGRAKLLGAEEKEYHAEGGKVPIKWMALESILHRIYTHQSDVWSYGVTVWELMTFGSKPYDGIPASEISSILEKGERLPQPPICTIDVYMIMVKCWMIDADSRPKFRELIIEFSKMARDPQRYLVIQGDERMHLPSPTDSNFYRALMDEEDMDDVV

A word on the GI50: it is the concentration giving 50% growth inhibition. The Kd is the free concentration of one partner at which half of the binding sites on the other are occupied at equilibrium, for simple one-to-one binding. Take `C=CC(=O)Nc1cc(Nc2nccc(-c3cn(C)c4ccccc34)n2)c(OC)cc1N(C)CCN(C)CCOCCOCCOCCOCCON(C)C(=O)N1N=C(c2cc(F)ccc2F)SC1(CCCN)c1ccccc1` (stereo not drawn) [Compound I-67]: the 50% growth inhibitory concentration (GI50) in the experiment with HEK293 cells and with HeLa cells was 0.5 to 1.5 µM throughout. The Kd is below 0.05 µM on EGFR, below 0.05 µM in experiment [1] and 0.05 to 0.5 µM in experiment [2].

As to `C=CC(=O)Nc1cc(Nc2nccc(-c3cn(C)c4ccccc34)n2)c(OC)cc1N(C)CCN(C)CCOCCOCCOCCOCCOCCOCCOCCOCCON(C)C(=O)N1N=C(c2cc(F)ccc2F)SC1(CCCN)c1ccccc1` (stereo not drawn) [Compound I-69], the results for the 50% growth inhibitory concentration (GI50) with HEK293 cells and in the experiment with HeLa cells were 0.5 to 1.5 µM and below 0.5 µM, respectively. Besides, the dissociation constant (Kd) at EGFR was below 0.05 µM; in experiment [1], below 0.05 µM; in experiment [2] it was 0.5 to 2.5 µM.

As for `CC[C@@H]1C(=O)N(C)c2cnc(Nc3ccc(C(=O)NCCOCCOCCOCCOCCOCCOCCN(C)C/C=C/C(=O)Nc4cc(Nc5nccc(-c6cn(C)c7ccccc67)n5)c(OC)cc4N(C)CCN(C)C)cc3OC)nc2N1C1CCCC1` [Compound I-118, 4-[[(7R)-8-cyclopentyl-7-ethyl-5-methyl-6-oxo-7H-pteridin-2-yl]amino]-N-[2-[2-[2-[2-[2-[2-[2-[[(E)-4-[2-[2-(dimethylamino)ethyl-methyl-amino]-4-methoxy-5-[[4-(1-methylindol-3-yl)pyrimidin-2-yl]amino]anilino]-4-oxo-but-2-enyl]-methyl-amino]ethoxy]ethoxy]ethoxy]ethoxy]ethoxy]ethoxy]ethyl]-3-methoxy-benzamide], the GI50 in the experiment with HEK293 cells fell in the range of 0.5 to 1.5 µM. Further, the equilibrium dissociation constant (Kd) on EGFR is above 2.5 µM; in experiment [1] it was 0.05 to 0.5 µM; in experiment [2] it was above 2.5 µM.

For `CCC1C(=O)N(C)c2cnc(Nc3ccc(C(=O)NCCOCCOCCN(C)CC=CC(=O)NC4CN(c5nc(Nc6cn(C)nc6OC)c6ncn(C)c6n5)CC4F)cc3OC)nc2N1C1CCCC1` [Compound I-120, 4-[[(7R)-8-cyclopentyl-7-ethyl-5-methyl-6-oxo-7H-pteridin-2-yl]amino]-N-[2-[2-[2-[[(E)-4-1[[(3R,4R)-4-fluoro-1-[6-1[(3-methoxy-1-methyl-pyrazol-4-yl)amino]-9-methyl-purin-2-yl]pyrrolidin-3-yl]amino]-4-oxo-but-2-enyl]-methylamino]ethoxy]ethoxy]ethyl]-3-methoxy-benzamide], in the experiment on HEK293 cells, the concentration for 50% growth inhibition (GI50) was in the range of 0.5 to 1.5 µM. Moreover, the dissociation constant (Kd) at EGFR is above 2.5 µM; in experiment [1], 0.05 to 0.5 µM; in experiment [2] it was above 2.5 µM.

Turning to `CC[C@@H]1C(=O)N(C)c2cnc(Nc3ccc(C(=O)NCCOCCOCCOCCOCCOCCOCCN(C)C/C=C/C(=O)NC4CN(c5nc(Nc6cn(C)nc6OC)c6ncn(C)c6n5)C[C@H]4F)cc3OC)nc2N1C1CCCC1` (stereo partly drawn) [Compound I-121, 4-[[(7R)-8-cyclopentyl-7-ethyl-5-methyl-6-oxo-7H-pteridin-2-yl]amino]-N-[2-[2-[2-[2-[2-[2-[2-[[(E)-4-[1[(3R,4R)-4-fluoro-1-1[6-1[(3-methoxy-1-methyl-pyrazol-4-yl)amino]-9-methyl-purin-2-yl]pyrrolidin-3-yl]amino]-4-oxo-but-2-enyl]-methyl-amino]ethoxy]ethoxy]ethoxy]ethoxy]ethoxy]ethoxy]ethyl]-3-methoxy-benzamide], the GI50 in the experiment on HEK293 cells lay within 0.5 to 1.5 µM. The Kd at EGFR was 0.5 to 2.5 µM; in experiment [1], 0.05 to 0.5 µM; in experiment [2], 0.5 to 2.5 µM.

With `C=CC(=O)Nc1cc(Nc2nccc(-c3cn(C)c4ccccc34)n2)c(OC)cc1N(C)CCN(C)CCCN1CCN(CCCNC(=O)c2ccc(Nc3ncc4c(n3)N(C3CCCC3)[C@H](CC)C(=O)N4C)c(OC)c2)CC1` [Compound I-122, 4-[(8-cyclopentyl-7-ethyl-5-methyl-6-oxo-7H-pteridin-2-yl)amino]-3-methoxy-N-[3-[4-[3-[2-[5-methoxy-N-methyl-4-[[4-(1-methylindol-3-yl)pyrimidin-2-yl]amino]-2-(prop-2-enoylamino)anilino]ethyl-methyl-amino]propyl]piperazin-1-yl]propyl]benzamide], the GI50 in the experiment with HEK293 cells and in the experiment with HeLa cells was 1.5 to 5 µM throughout. Further, the Kd at EGFR was 0.05 to 0.5 µM; in experiment [1], below 0.05 µM; in experiment [2], 0.5 to 2.5 µM.

Consider `CC[C@@H]1C(=O)N(C)c2cnc(Nc3ccc(C(=O)NCCOCCOCCOCCOCCN(C)C/C=C/C(=O)Nc4cc(Nc5nccc(-c6cn(C)c7ccccc67)n5)c(OC)cc4N(C)CCN(C)C)cc3OC)nc2N1C1CCCC1` [Compound I-123, 4-[[(7R)-8-cyclopentyl-7-ethyl-5-methyl-6-oxo-7H-pteridin-2-yl]amino]-N-[2-[2-1[2-[2-[2-[[(E)-4-[2-1[2-(dimethylamino)ethyl-methyl-amino]-4-methoxy-5-[1[4-(1-methylindol-3-yl)pyrimidin-2-yl]amino]anilino]-4-oxo-but-2-enyl]-methyl-amino]ethoxy]ethoxy]ethoxy]ethoxy]ethyl]-3-methoxy-benzamide], for which the GI50 in the experiment with HEK293 cells and with HeLa cells was 0.5 to 1.5 µM each time. In addition, the Kd on EGFR was above 2.5 µM; in experiment [1], below 0.05 µM; in experiment [2] it was above 2.5 µM.

For the molecule `COc1cc(N(C)CCN(C)C)c(NC(=O)/C=C/CN(C)CCCN2CCN(CCCON(C)C(=O)N3N=C(c4cc(F)ccc4F)S[C@@]3(CCCN)c3ccccc3)CC2)cc1Nc1nccc(-c2cn(C)c3ccccc23)n1` [Compound I-146, (2S)-2-(3-aminopropyl)-5-(2,5-difluorophenyl)-N-[3-[4-1[3-[[(E)-4-1[2-[2-(dimethylamino)ethyl-methyl-amino]-4-methoxy-5-1[[4-(1-methylindol-3-yl)pyrimidin-2-yl]amino]anilino]-4-oxo-but-2-enyl]-methyl-amino]propyl]piperazin-1-yl]propoxy]-N-methyl-2-phenyl-1,3,4-thiadiazole-3-carboxamide], the GI50 in the experiment with HeLa cells lay within 0.5 to 1.5 µM. For the same molecule, the equilibrium dissociation constant (Kd) on EGFR is 0.5 to 2.5 µM; in experiment [1] it was below 0.05 µM; in experiment [2], 0.5 to 2.5 µM.
